In the NIST ThermoML archive (doi:10.1021/je500153g):

Columns and labels:
[1] = xn = mol fraction of the nth substance listed; conditions: 101 kPa, Liquid; for viscosity: Concentric cylinders viscometry; for mass density: Vibrating tube method
[2] = 101 kPa, Liquid; for viscosity: Concentric cylinders viscometry; for mass density: Vibrating tube method

CC(C)O [propan-2-ol] + O=S1(=O)CCCC1
[1], x2 = 0
Conditions | mass density [kg/m3] | viscosity [mPa·s]
303.15 K | 777.5 | 1.78
313.15 K | 768.8 | 1.34
323.15 K | 759.7 | 1.03
333.15 K | 750 | 0.79
343.15 K | 739.5 | 0.64

OCCOCCOCCO [triethylene glycol]
[2]
Conditions | mass density [kg/m3] | viscosity [mPa·s]
303.15 K | 1116.5 | 29.5
313.15 K | 1108.9 | 19.3
323.15 K | 1101.1 | 13.3
333.15 K | 1093.4 | 9.58
343.15 K | 1085.5 | 7.16

OCCOCCO [diethylene glycol]
[2]
Conditions | mass density [kg/m3] | viscosity [mPa·s]
303.15 K | 1110 | 22.5
313.15 K | 1103 | 14.9
323.15 K | 1095.9 | 10.4
333.15 K | 1088.5 | 7.6
343.15 K | 1081.1 | 5.75

CCC(C)O (stereo not given) [butan-2-ol]
[2]
Conditions | mass density [kg/m3] | viscosity [mPa·s]
303.15 K | 799.3 | 2.51
313.15 K | 790.7 | 1.78
323.15 K | 781.7 | 1.31
333.15 K | 772.1 | 0.99
343.15 K | 762 | 0.78

OCCOCCO [diethylene glycol] + O=S1(=O)CCCC1
[1], x2 = 0
Conditions | mass density [kg/m3] | viscosity [mPa·s]
303.15 K | 1110 | 22.5
313.15 K | 1103 | 14.9
323.15 K | 1095.9 | 10.4
333.15 K | 1088.5 | 7.6
343.15 K | 1081.1 | 5.75

O=S1(=O)CCCC1 [sulfolane]
[2]
Conditions | mass density [kg/m3] | viscosity [mPa·s]
303.15 K | 1262.9 | 10.4
313.15 K | 1254.1 | 8.07
323.15 K | 1245.2 | 6.45
333.15 K | 1236.6 | 5.22
343.15 K | 1228.1 | 4.32

CCC(C)O (stereo not given) [butan-2-ol] + O=S1(=O)CCCC1
[1], x2 = 0
Conditions | mass density [kg/m3] | viscosity [mPa·s]
303.15 K | 799.3 | 2.51
313.15 K | 790.7 | 1.78
323.15 K | 781.7 | 1.31
333.15 K | 772.1 | 0.99
343.15 K | 762 | 0.78

O=S1(=O)CCCC1 [sulfolane] + OCCOCCOCCO
[1], x1 = 1
Conditions | mass density [kg/m3] | viscosity [mPa·s]
303.15 K | 1262.9 | 10.4
313.15 K | 1254.1 | 8.07
323.15 K | 1245.2 | 6.45
333.15 K | 1236.6 | 5.22
343.15 K | 1228.1 | 4.32

CC(C)O [propan-2-ol]
[2]
Conditions | mass density [kg/m3] | viscosity [mPa·s]
303.15 K | 777.5 | 1.78
313.15 K | 768.8 | 1.34
323.15 K | 759.7 | 1.03
333.15 K | 750 | 0.79
343.15 K | 739.5 | 0.64
